System: human umbilical vein endothelial cells (HUVEC)
Test: HUVEC proliferation assay (VEGF-stimulated, MTT);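 note: relative to VEGF-stimulated control minus starvation-medium baseline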
Type: cell-based
Settings: Library II, Y=S, crude reaction mixtures
Experimental: HUVEC Proliferation Assay
This assay determines the ability of a test compound to inhibit the growth factor-stimulated proliferation of human umbilical vein endothelial cells (“HUVEC”). HUVEC cells (passage 3-4, Clonetics, Corp.) were thawed into EGM2 culture medium (Clonetics Corp) in T75 flasks. Fresh EGM2 medium was added to the flasks 24 hours later. Four or five days later, cells were exposed to another culture medium (F12K medium supplemented with 10% fetal bovine serum (FBS), 60 μg/mL endothelial cell growth supplement (ECGS), and 0.1 mg/mL heparin). Exponentially-growing HUVEC cells were used in experiments thereafter. Ten to twelve thousand HUVEC cells were plated in 96-well dishes in 100 μl of rich, culture medium (described above). The cells were allowed to attach for 24 hours in this medium. The medium was then removed by aspiration and 105 μl of starvation media (F12K+1% FBS) was added to each well. After 24 hours, 15 μl of test agent dissolved in 1% DMSO in starvation medium or this vehicle alone was added into each treatment well; the final DMSO concentration was 0.1%. One hour later, 30 μl of VEGF (30 ng/mL) in starvation media was added to all wells except those containing untreated controls; the final VEGF concentration was 6 ng/mL. Cellular proliferation was quantified 72 hours later by MTT dye reduction, at which time cells were exposed for 4 hours MTT (Promega Corp.).
For screening compound library plates, one or two concentrations (one well per concentration) were employed, and the % inhibition was calculated by the following formula:
% inhibition=(control−test)÷(control−starvation)
% inhibition=(control-treated)/(control-starvation)×100

[1] = 0.5 mM (column head; text: nominal 0.5 nM)
[2] = 2 mM (column head; text: nominal 2 nM)

| Structure (SMILES) | % inhibition of the proliferation of HUVEC [1] [%] | % inhibition of the proliferation of HUVEC [2] [%] |
| --- | --- | --- |
| CC1CCCCN1CCCNC(=O)c1ccccc1Sc1ccc2c(/C=C/c3ccccn3)n[nH]c2c1 (centres unmarked) | 25 | 15 |
| O=C(NC1CCN(Cc2ccccc2)CC1)c1ccccc1Sc1ccc2c(/C=C/c3ccccn3)n[nH]c2c1 | 44 | 19 |
| CN(C)CC(C)(C)CNC(=O)c1ccccc1Sc1ccc2c(/C=C/c3ccccn3)n[nH]c2c1 | 38 | 5 |
| O=C(NC1CCC(O)CC1)c1ccccc1Sc1ccc2c(C=Cc3ccccn3)n[nH]c2c1 (centres unmarked) | 23 | 6 |
| O=C(O)CCNC(=O)c1ccccc1Sc1ccc2c(/C=C/c3ccccn3)n[nH]c2c1 | 4 | 20 |
| COCCNC(=O)c1ccccc1Sc1ccc2c(/C=C/c3ccccn3)n[nH]c2c1 | 21 | 60 |
| O=C(NCCCn1ccnc1)c1ccccc1Sc1ccc2c(/C=C/c3ccccn3)n[nH]c2c1 | 23 | 23 |
| NS(=O)(=O)c1ccc(CCNC(=O)c2ccccc2Sc2ccc3c(/C=C/c4ccccn4)n[nH]c3c2)cc1 | 26 | 37 |
| N#CCONC(=O)c1ccccc1Sc1ccc2c(/C=C/c3ccccn3)n[nH]c2c1 | 16 | 2 |
| CS(=O)(=O)NNC(=O)c1ccccc1Sc1ccc2c(/C=C/c3ccccn3)n[nH]c2c1 | 9 | 1 |
| CCn1nccc1NC(=O)c1ccccc1Sc1ccc2c(/C=C/c3ccccn3)n[nH]c2c1 | 26 | 2 |
| Cc1cc(NC(=O)c2ccccc2Sc2ccc3c(/C=C/c4ccccn4)n[nH]c3c2)n(C)n1 | 39 | 13 |
| NC(=O)NNC(=O)c1ccccc1Sc1ccc2c(/C=C/c3ccccn3)n[nH]c2c1 | 19 | 5 |
| O=C(NCCCO)c1ccccc1Sc1ccc2c(/C=C/c3ccccn3)n[nH]c2c1 | 24 | 31 |
| Cc1noc(NC(=O)c2ccccc2Sc2ccc3c(/C=C/c4ccccn4)n[nH]c3c2)c1C | 15 | 36 |
| CC1CCCC(NC(=O)c2ccccc2Sc2ccc3c(/C=C/c4ccccn4)n[nH]c3c2)C1 (centres unmarked) | 69 | 59 |
| CC1CCC(NC(=O)c2ccccc2Sc2ccc3c(/C=C/c4ccccn4)n[nH]c3c2)CC1 (centres unmarked) | −11 | 42 |
| O=C(NNCC(F)(F)F)c1ccccc1Sc1ccc2c(/C=C/c3ccccn3)n[nH]c2c1 | 16 | 42 |
| Cc1csc(NC(=O)c2ccccc2Sc2ccc3c(/C=C/c4ccccn4)n[nH]c3c2)n1 | 15 | 95 |

| Structure (SMILES) | % inhibition of the proliferation of HUVEC [1] [%] | % inhibition of the proliferation of HUVEC [2] [%] |
| --- | --- | --- |
| Cc1cnc(NC(=O)c2ccccc2Sc2ccc3c(/C=C/c4ccccn4)n[nH]c3c2)s1 | 20 | 92 |
| CN1CCN(NC(=O)c2ccccc2Sc2ccc3c(/C=C/c4ccccn4)n[nH]c3c2)CC1 | 19 | −1 |
| CCCCC(CC)NC(=O)c1ccccc1Sc1ccc2c(/C=C/c3ccccn3)n[nH]c2c1 (centres unmarked) | 31 | 30 |
| CCCCCC(C)NC(=O)c1ccccc1Sc1ccc2c(/C=C/c3ccccn3)n[nH]c2c1 (centres unmarked) | −1 | 14 |
| CC(C)CCC(C)NC(=O)c1ccccc1Sc1ccc2c(/C=C/c3ccccn3)n[nH]c2c1 (centres unmarked) | 6 | 44 |
| CCCC(CCC)NC(=O)c1ccccc1Sc1ccc2c(/C=C/c3ccccn3)n[nH]c2c1 | 1 | 52 |
| CC(C)C(NC(=O)c1ccccc1Sc1ccc2c(/C=C/c3ccccn3)n[nH]c2c1)C(C)C | 18 | −2 |
| O=C1CSC(NC(=O)c2ccccc2Sc2ccc3c(/C=C/c4ccccn4)n[nH]c3c2)=N1 | 9 | −9 |
| CCCCC(=O)NNC(=O)c1ccccc1Sc1ccc2c(/C=C/c3ccccn3)n[nH]c2c1 | 40 | 94 |
| O=C(NCCC1OCCO1)c1ccccc1Sc1ccc2c(/C=C/c3ccccn3)n[nH]c2c1 | 38 | 68 |
| CC(C)OCCCNC(=O)c1ccccc1Sc1ccc2c(/C=C/c3ccccn3)n[nH]c2c1 | 34 | 99 |
| CC(NC(=O)c1ccccc1Sc1ccc2c(/C=C/c3ccccn3)n[nH]c2c1)c1ccccc1 (centres unmarked) | 30 | 94 |
| Cc1ccccc1CNC(=O)c1ccccc1Sc1ccc2c(/C=C/c3ccccn3)n[nH]c2c1 | 24 | 99 |
| Cc1ccc(CNC(=O)c2ccccc2Sc2ccc3c(/C=C/c4ccccn4)n[nH]c3c2)cc1 | 20 | 92 |
| O=C(NCCc1ccccc1)c1ccccc1Sc1ccc2c(/C=C/c3ccccn3)n[nH]c2c1 | 15 | 99 |
| CN(NC(=O)c1ccccc1Sc1ccc2c(/C=C/c3ccccn3)n[nH]c2c1)c1ccccc1 | 16 | 37 |
| O=C(NN1CCCC1)c1ccccc1Sc1ccc2c(/C=C/c3ccccn3)n[nH]c2c1 | 17 | 23 |
| O=C(NNC(=O)c1ccccc1Sc1ccc2c(/C=C/c3ccccn3)n[nH]c2c1)c1ccc[nH]1 | 60 | 99 |

— patent US6534524B1, “Indazole compounds and pharmaceutical compositions for inhibiting protein kinases, and methods for their use” (Agouron Pharmaceuticals, Inc., priority 1999, dated 2003)
